In publication PMC10509173, “Deep learning driven de novo drug design based on gastric proton pump structures” (Communications Biology, 2023):
“And” between values parts separate entries of the source, which are not always exact repeats. Equal entries are not always repeated. Where two headings read alike, the source gives them in different places.

Key:
H+,K+-ATPase [1] = tested on: H+,K+-ATPase; set-up: method as in PMID 35604136, PMID 28747707; conditions: cited from earlier work
H+,K+-ATPase [2] = target: H+,K+-ATPase; set-up: method as in PMID 2837231; conditions: cited from earlier work
H+,K+-ATPase [3] = target: T1, H+,K+-ATPase (Sus scrofa, UniProt P19156); test: Dose-dependent inhibition of H+,K+-ATPase activity, membrane fractions; conditions: for H+,K+-ATPase activity, raw data of dose-dependent inhibition: single replicate values
T1 sequence (P19156 2-1034 limits assumed): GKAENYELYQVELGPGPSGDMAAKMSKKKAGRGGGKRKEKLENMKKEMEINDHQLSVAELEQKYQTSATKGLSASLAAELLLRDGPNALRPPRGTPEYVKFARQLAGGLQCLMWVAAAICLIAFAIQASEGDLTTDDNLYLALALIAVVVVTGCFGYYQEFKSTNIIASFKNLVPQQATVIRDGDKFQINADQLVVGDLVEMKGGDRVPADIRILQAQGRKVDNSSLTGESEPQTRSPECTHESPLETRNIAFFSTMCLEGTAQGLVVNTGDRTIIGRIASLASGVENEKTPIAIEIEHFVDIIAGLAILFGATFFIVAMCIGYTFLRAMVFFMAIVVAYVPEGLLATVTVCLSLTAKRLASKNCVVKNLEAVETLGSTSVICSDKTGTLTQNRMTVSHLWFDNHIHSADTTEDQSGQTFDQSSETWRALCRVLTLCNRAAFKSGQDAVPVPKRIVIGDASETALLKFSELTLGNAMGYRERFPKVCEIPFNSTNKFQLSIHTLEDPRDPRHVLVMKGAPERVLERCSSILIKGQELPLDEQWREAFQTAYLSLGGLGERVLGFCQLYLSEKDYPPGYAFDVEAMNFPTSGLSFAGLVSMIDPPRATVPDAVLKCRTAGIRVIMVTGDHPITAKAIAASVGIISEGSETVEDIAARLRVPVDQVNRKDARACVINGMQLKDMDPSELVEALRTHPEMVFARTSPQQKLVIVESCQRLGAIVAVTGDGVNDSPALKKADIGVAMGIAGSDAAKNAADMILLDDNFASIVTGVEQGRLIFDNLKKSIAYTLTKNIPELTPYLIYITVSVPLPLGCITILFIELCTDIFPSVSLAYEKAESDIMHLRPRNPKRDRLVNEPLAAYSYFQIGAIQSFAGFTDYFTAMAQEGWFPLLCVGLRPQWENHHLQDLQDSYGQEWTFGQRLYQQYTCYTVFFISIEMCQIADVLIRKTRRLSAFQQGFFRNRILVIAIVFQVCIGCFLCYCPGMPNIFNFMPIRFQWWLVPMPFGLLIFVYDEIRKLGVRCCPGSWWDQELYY
T1 sequence (P18434 whole entry partner): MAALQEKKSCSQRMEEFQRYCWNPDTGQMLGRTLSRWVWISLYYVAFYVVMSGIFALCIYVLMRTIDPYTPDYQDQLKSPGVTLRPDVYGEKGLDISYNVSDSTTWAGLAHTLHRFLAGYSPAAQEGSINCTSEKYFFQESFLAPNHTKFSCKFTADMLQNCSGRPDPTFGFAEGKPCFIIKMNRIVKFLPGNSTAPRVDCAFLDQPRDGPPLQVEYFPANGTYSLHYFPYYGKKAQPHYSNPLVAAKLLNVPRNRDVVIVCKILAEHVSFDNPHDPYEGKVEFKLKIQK

H+,K+-ATPase [4] = target: T1, H+,K+-ATPase; test: K+-dependent ATPase assay, double reciprocal plot and Ki estimation; assay type: biochemical, pig; set-up: H^+,K^+-ATPase-enriched membrane fractions were purified from pig stomach; from tissue; host or cells: pig stomach (gastric membrane fractions); reciprocal K+-stimulated ATPase activity, Lineweaver-Burk raw data: unit not given here; conditions: for reciprocal K+-stimulated ATPase activity, Lineweaver-Burk raw data: replicate values
Source text: Data measured from 96-well plate contained triplicates of four different sets of K^+-dependent ATPase assays in the absence or presence of three different concentrations of synthesized compounds. Data were corrected for background values in the absence of K^+ at each compound concentration, and plot them against the double reciprocal axes in Supplementary Fig. 5. Data were also fitted by using simultaneous nonlinear regression as described previously to estimate their Ki values.

## COCCO[C@@H]1c2ccn3c(C)c(C)nc3c2N[C@H](c2ccccc2)[C@H]1O [soraprazan]
H+,K+-ATPase [1]
  times higher apparent affinity than SCH28080: > 7 times

## Cc1nc2c(OCc3ccccc3)cccn2c1CC#N [SCH28080]
H+,K+-ATPase [2]; pH 6.11
  Ki: 20 nM
H+,K+-ATPase [2]; pH 7.35
  Ki: 66 nM

## Cc1nc2c3c(ccn2c1C)[C@@H](O)[C@H](O)[C@@H](c1ccccc1)N3 [BYK99]
H+,K+-ATPase [1]
  times higher apparent affinity than SCH28080: more than 25 times

## CNCc1ccc(OCc2ccccc2OCc2ccccc2)cc1 [DQ-06]
H+,K+-ATPase [3]
  IC50: 700 ± 40 nM
H+,K+-ATPase [3]; [PCAB] -3.30103 (log, unit not given)
  H+,K+-ATPase activity, raw data of dose-dependent inhibition: 0.01 and -0.01 and 0.22 and -0.22 and -0.74 and -0.4
H+,K+-ATPase [3]; [PCAB] -3.52288 (log, unit not given)
  H+,K+-ATPase activity, raw data of dose-dependent inhibition: 1.74 and 1.71 and 2.79 and 2.38 and 1.76 and 2.41
H+,K+-ATPase [3]; [PCAB] -4 (log, unit not given)
  H+,K+-ATPase activity, raw data of dose-dependent inhibition: 5.02 and 5.03 and 3.19 and 3.1 and 2.85 and 2.51
H+,K+-ATPase [3]; [PCAB] -4.30103 (log, unit not given)
  H+,K+-ATPase activity, raw data of dose-dependent inhibition: 5.51 and 5.6 (2×) and 5.65 and 5.75 and 5.83
H+,K+-ATPase [3]; [PCAB] -4.52288 (log, unit not given)
  H+,K+-ATPase activity, raw data of dose-dependent inhibition: 5.58 and 6.16 and 6.26 and 6.39 and 7.23 and 7.48
H+,K+-ATPase [3]; [PCAB] -5 (log, unit not given)
  H+,K+-ATPase activity, raw data of dose-dependent inhibition: 9.37 and 9.6 and 11.28 and 10.91 and 10.15 and 11.11
H+,K+-ATPase [3]; [PCAB] -5.52288 (log, unit not given)
  H+,K+-ATPase activity, raw data of dose-dependent inhibition: 20.15 and 21.1 and 19.71 and 21.04 and 20.73 and 20.63
H+,K+-ATPase [3]; [PCAB] -6 (log, unit not given)
  H+,K+-ATPase activity, raw data of dose-dependent inhibition: 39.09 and 39.39 and 38.28 and 36.79 and 38.33 and 39.14
H+,K+-ATPase [3]; [PCAB] -6.30103 (log, unit not given)
  H+,K+-ATPase activity, raw data of dose-dependent inhibition: 57.6 and 58.17 and 57.79 and 57.15 and 58.12 and 57.53
H+,K+-ATPase [3]; [PCAB] -7 (log, unit not given)
  H+,K+-ATPase activity, raw data of dose-dependent inhibition: 90.69 and 91.88 and 87.97 and 84.74 and 90.82 and 88.26
H+,K+-ATPase [3]; [PCAB] -8 (log, unit not given)
  H+,K+-ATPase activity, raw data of dose-dependent inhibition: 101.14 and 100.91 and 95.09 and 94.94 and 96.97 and 96.94
H+,K+-ATPase [3]; [PCAB] -11 (log, unit not given; possibly placeholder for no compound)
  H+,K+-ATPase activity, raw data of dose-dependent inhibition: 102.84 and 103.26 and 99.81 and 97.12 and 97.38 and 101.76
H+,K+-ATPase [4]; K+-competitive inhibition, read-out: Ki
  Ki: 93.8 nM
H+,K+-ATPase [4]; compound concentration 50, 1/KCl 0.05 (units not given)
  reciprocal K+-stimulated ATPase activity, Lineweaver-Burk raw data: 0.0059 and 0.0057 and 0.006
H+,K+-ATPase [4]; compound concentration 50, 1/KCl 0.1 (units not given)
  reciprocal K+-stimulated ATPase activity, Lineweaver-Burk raw data: 0.0075 and 0.0077 and 0.0078
H+,K+-ATPase [4]; compound concentration 50, 1/KCl 0.125 (units not given)
  reciprocal K+-stimulated ATPase activity, Lineweaver-Burk raw data: 0.0067 and 0.0066 and 0.007
H+,K+-ATPase [4]; compound concentration 50, 1/KCl 0.2 (units not given)
  reciprocal K+-stimulated ATPase activity, Lineweaver-Burk raw data: 0.0088 and 0.0086 and 0.0089
H+,K+-ATPase [4]; compound concentration 50, 1/KCl 0.5 (units not given)
  reciprocal K+-stimulated ATPase activity, Lineweaver-Burk raw data: 0.0111 and 0.011 and 0.0112
H+,K+-ATPase [4]; compound concentration 50, 1/KCl 1 (units not given)
  reciprocal K+-stimulated ATPase activity, Lineweaver-Burk raw data: 0.0282 and 0.0275 and 0.0291
H+,K+-ATPase [4]; compound concentration 50, 1/KCl 2 (units not given)
  reciprocal K+-stimulated ATPase activity, Lineweaver-Burk raw data: 0.035 and 0.034 and 0.0286
H+,K+-ATPase [4]; compound concentration 100, 1/KCl 0.05 (units not given)
  reciprocal K+-stimulated ATPase activity, Lineweaver-Burk raw data: 0.0066 and 0.0063 and 0.0065
H+,K+-ATPase [4]; compound concentration 100, 1/KCl 0.1 (units not given)
  reciprocal K+-stimulated ATPase activity, Lineweaver-Burk raw data: 0.0087 and 0.0094 and 0.0098
H+,K+-ATPase [4]; compound concentration 100, 1/KCl 0.125 (units not given)
  reciprocal K+-stimulated ATPase activity, Lineweaver-Burk raw data: 0.0086 and 0.0083 and 0.0082
H+,K+-ATPase [4]; compound concentration 100, 1/KCl 0.2 (units not given)
  reciprocal K+-stimulated ATPase activity, Lineweaver-Burk raw data: 0.011 and 0.0106 and 0.0113
H+,K+-ATPase [4]; compound concentration 100, 1/KCl 0.5 (units not given)
  reciprocal K+-stimulated ATPase activity, Lineweaver-Burk raw data: 0.0167 and 0.0156 and 0.0168
H+,K+-ATPase [4]; compound concentration 100, 1/KCl 1 (units not given)
  reciprocal K+-stimulated ATPase activity, Lineweaver-Burk raw data: 0.0412 and 0.0415 and 0.043
H+,K+-ATPase [4]; compound concentration 100, 1/KCl 2 (units not given)
  reciprocal K+-stimulated ATPase activity, Lineweaver-Burk raw data: 0.056 and 0.0496 and 0.0604
H+,K+-ATPase [4]; compound concentration 400, 1/KCl 0.05 (units not given)
  reciprocal K+-stimulated ATPase activity, Lineweaver-Burk raw data: 0.0084 and 0.0076 and 0.008
H+,K+-ATPase [4]; compound concentration 400, 1/KCl 0.1 (units not given)
  reciprocal K+-stimulated ATPase activity, Lineweaver-Burk raw data: 0.0109 and 0.0112 and 0.011
H+,K+-ATPase [4]; compound concentration 400, 1/KCl 0.125 (units not given)
  reciprocal K+-stimulated ATPase activity, Lineweaver-Burk raw data: 0.0123 and 0.011 and 0.0111
H+,K+-ATPase [4]; compound concentration 400, 1/KCl 0.2 (units not given)
  reciprocal K+-stimulated ATPase activity, Lineweaver-Burk raw data: 0.0153 and 0.0154 and 0.0157
H+,K+-ATPase [4]; compound concentration 400, 1/KCl 0.5 (units not given)
  reciprocal K+-stimulated ATPase activity, Lineweaver-Burk raw data: 0.0261 and 0.0253 and 0.0282
H+,K+-ATPase [4]; compound concentration 400, 1/KCl 1 (units not given)
  reciprocal K+-stimulated ATPase activity, Lineweaver-Burk raw data: 0.069 and 0.0649 and 0.0653
H+,K+-ATPase [4]; compound concentration 400, 1/KCl 2 (units not given)
  reciprocal K+-stimulated ATPase activity, Lineweaver-Burk raw data: 0.097 and 0.0973 and 0.106
H+,K+-ATPase [4]; double reciprocal plot, versus K+
  inhibition mode: purely competitive with K^+
